Test results from US8546608B2, “Proteasome inhibitors and methods of using the same” (Cephalon, Inc., priority 2003, dated 2013).
Structures can show the parent of a compound that is named as a salt. Where two headings read alike, the source gives them in different places.

Experiments:
[1] = target: T1, proteasome in Molt-4 cells (human leukemia) (Homo sapiens, UniProt P20618+P28074); assay type: cell-based
T1 sequence (P28074 60-263): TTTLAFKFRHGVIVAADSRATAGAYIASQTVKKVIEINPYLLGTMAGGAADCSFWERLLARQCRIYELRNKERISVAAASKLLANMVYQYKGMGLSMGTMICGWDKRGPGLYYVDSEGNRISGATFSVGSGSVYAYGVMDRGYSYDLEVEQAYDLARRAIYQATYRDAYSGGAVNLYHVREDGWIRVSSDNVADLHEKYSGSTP
T1 sequence (P20618 29-241): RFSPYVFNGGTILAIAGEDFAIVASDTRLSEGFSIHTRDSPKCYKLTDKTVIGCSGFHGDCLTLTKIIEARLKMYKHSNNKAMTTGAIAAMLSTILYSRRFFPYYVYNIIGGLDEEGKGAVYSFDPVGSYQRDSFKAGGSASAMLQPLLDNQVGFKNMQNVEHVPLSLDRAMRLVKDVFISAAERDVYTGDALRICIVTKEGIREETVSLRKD
Method in brief: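 Intact Molt-4 cells (6×10^6 cells/mL) in HEPES-buffered saline were preincubated with inhibitor 15 min at 37 °C, then given cell-permeable MeOSuc-FLF-AFC at 25 μM final.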

[2] = target: T2, 20S Human Erythrocyte Proteasome (HEP) (Homo sapiens, UniProt P20618+P28074); assay: Chymotrypsin-like activity of 20S Human Erythrocyte Proteasome (HEP), IC50 determination; assay type: biochemical; conditions: assay of Example C, inhibition of HEP
T2 construct: 20S Human Erythrocyte Proteasome (HEP), purchased from Immatics Biotechnologies Inc; purchased Immatics Biotechnologies Inc., Tübingen, Germany; host or cells: human erythrocytes (natural source)
Method in brief: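 20S proteasome at 0.2 μg/mL (about 0.6 nM catalytic sites) in 20 mM Tris with 0.04% SDS, preincubated 15 min at 37° C with inhibitor before Suc-LLVY-AMC (100 μM final). AMC fluorescence read in the linear range; triplicates, IC50 from concentration series.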

[3] = assay of Example E, inhibition of MOLT4; read-out: MOLT4 (EC50)

EC50 [1, 3] | IC50 [2] | Structure (SMILES) | EC50 ([1]; read-out: MOLT4 (EC50); assay of Example E, inhibition of MOLT4)
< 200 nM | < 10 nM | CC(C)C[C@H](NC(=O)[C@H](CCCNC(=N)N[N+](=O)[O-])NC(=O)CC1CCCCCC1)B1O[C@@H]2C[C@@H]3C[C@@H](C3(C)C)[C@]2(C)O1 [D.3.43] | –
2000 to 10000 nM | < 10 nM | CC(C)C[C@H](NC(=O)[C@H](CCCNC(=N)N[N+](=O)[O-])NC(=O)CC1CCCCCC1)B(O)O [E.2.29, Boronic acid, [(1R)-1-[[(2S)-5-[[imino(nitroamino)methyl]amino]-2-[(2-cycloheptylacetyl)amino]-1-oxopentyl]amino]-3-methylbutyl]] | –
< 200 nM | < 10 nM | CCCCc1ccc(C(=O)N[C@@H](CNC(=O)C2CC2)C(=O)N[C@@H](CC(C)C)B2O[C@@H]3C[C@@H]4C[C@@H](C4(C)C)[C@]3(C)O2)cc1 [D.24.11] | –
2000 to 10000 nM | < 10 nM | COc1ccccc1/C=C/C(=O)N[C@@H](CCCNC(=N)N[N+](=O)[O-])C(=O)N[C@@H](CC(C)C)B(O)O [D.7.1, Boronic acid, [(1R)-1-[[(2S)-5-[[imino(nitroamino)methyl]amino]-2-[[(2E)-3-(2-methoxyphenyl)-1-oxoprop-2-enyl]amino]-1-oxopentyl]amino]-3-methylbutyl]] | –
2000 to 10000 nM | < 100 nM | CC(C)C[C@H](NC(=O)[C@H](CCCNC(=N)N[N+](=O)[O-])NC(=O)C1CCCCN1C(=O)OC(C)(C)C)B(O)O (mixture of isomers) [E.2.81, Boronic acid, [(1R)-1-[[(2S)-5-[[imino(nitroamino)methyl]amino]-2-[[(2RS)-1-[(1,1-dimethylethoxy)carbonyl]piperidine-2-carbonyl]amino]-1-oxopentyl]amino]-3-methylbutyl]] | –
2000 to 10000 nM | < 10 nM | Cc1ccc(F)c(C(=O)N[C@@H](CCCNC(=N)N[N+](=O)[O-])C(=O)N[C@@H](CC(C)C)B(O)O)c1 [E.2.40, Boronic acid, [(1R)-1-[[(2S)-5-[[imino(nitroamino)methyl]amino]-2-[(2-fluoro-5-methylbenzoyl)amino]-1-oxopentyl]amino]-3-methylbutyl]] | –
2000 to 10000 nM | < 10 nM | CC(C)C[C@H](NC(=O)[C@H](CCCNC(=N)N[N+](=O)[O-])NC(=O)CCCc1ccccc1)B(O)O [E.2.7, Boronic acid, [(1R)-1-[[(2S)-5-[[imino(nitroamino)methyl]amino]-2-[(4-phenylbutanoyl)amino]-1-oxopentyl]amino]-3-methylbutyl]] | –
< 200 nM | < 10 nM | CCCCCCCCCC(=O)N[C@@H](CNC(=O)c1ccc(C)cc1)C(=O)N[C@@H](CC(C)C)B(O)O [E.1.16, Boronic acid, [(1R)-1-[[(2S)-3-[(4-methylbenzoyl)amino]-2-[(decanoylamino)]-1-oxopropyl]amino]-3-methylbutyl]] | –
< 200 nM | < 10 nM | CCCCCC(=O)NC[C@H](NC(=O)c1ccc(CCCC)cc1)C(=O)N[C@@H](CC(C)C)B(O)O [E.5.10, Boronic acid, [(1R)-1-[[(2S)-3-(hexanoylamino)-2-[(4-butylbenzoylamino)]-1-oxopropyl]amino]-3-methylbutyl]] | –
< 200 nM | < 10 nM | CC(C)C[C@H](NC(=O)[C@H](CCCNC(=N)N[N+](=O)[O-])NC(=O)CCCc1ccccc1)B1O[C@@H]2C[C@@H]3C[C@@H](C3(C)C)[C@]2(C)O1 [D.3.12, 4-Phenylbutanamide,N-[(1S)-1-[[[(1R)-1-[(3aS,4S,6S,7aR)-hexahydro-3a,5,5-trimethyl-4,6-methano-1,3,2-benzodioxaborol-2-yl]-3-methylbutyl]amino]carbonyl]-4-[[imino(nitroamino)methyl]amino]butyl]] | –
< 200 nM | < 10 nM | CCCCCCCCCC(=O)NCC(=O)N[C@@H](CC(C)C)B1O[C@@H]2C[C@@H]3C[C@@H](C3(C)C)[C@]2(C)O1 [D.2.7, Decanamide,N-[1-[[[(1R)-1-[(3aS,4S,6S,7aR)-hexahydro-3a,5,5-trimethyl-4,6-methano-1,3,2-benzodioxaborol-2-yl]-3-methylbutyl]amino]carbonyl]methyl]] | –
< 200 nM | < 10 nM | CCc1ccc(OCC(=O)N[C@@H](CCCNC(=N)N[N+](=O)[O-])C(=O)N[C@@H](CC(C)C)B2O[C@@H]3C[C@@H]4C[C@@H](C4(C)C)[C@]3(C)O2)cc1 [D.3.55] | –
> 10000 nM | < 10 nM | CC(C)C[C@H](NC(=O)[C@H](CCCNC(=N)N[N+](=O)[O-])NC(=O)C1CCCCC1)B(O)O [E.2.14, Boronic acid, [(1R)-1-[[(2S)-5-[[imino(nitroamino)methyl]amino]-2-[(cyclohexanecarbonyl)amino]-1-oxopentyl]amino]-3-methylbutyl]] | –
2000 to 10000 nM | < 10 nM | CCCCc1ccc(C(=O)N[C@@H](CCCNC(N)=O)C(=O)N[C@@H](CC(C)C)B(O)O)cc1 [E.1.30, Boronic acid, [(1R)-1-[[(2S)-2-[(4-butylbenzoyl)amino]-1-oxo-5-ureido-pentyl]amino]-3-methylbutyl]] | –
< 200 nM | < 10 nM | CCCC/C=C/C(=O)N[C@@H](CCCNC(=N)N[N+](=O)[O-])C(=O)N[C@@H](CC(C)C)B1O[C@@H]2C[C@@H]3C[C@@H](C3(C)C)[C@]2(C)O1 [D.3.66, Hept-2-enamide,N-[(1S)-1-[[[(1R)-1-[(3aS,4S,6S,7aR)-hexahydro-3a,5,5-trimethyl-4,6-methano-1,3,2-benzodioxaborol-2-yl]-3-methylbutyl]amino]carbonyl]-4-[[imino(nitroamino)methyl]amino]butyl]] | –
< 200 nM | < 10 nM | CCCCCCCCC(=O)N[C@@H](CCCNC(=N)N[N+](=O)[O-])C(=O)N[C@@H](CC(C)C)B1O[C@@H]2C[C@@H]3C[C@@H](C3(C)C)[C@]2(C)O1 [D.3.15, Nonanamide,N-[(1S)-1-[[[(1R)-1-[(3aS,4S,6S,7aR)-hexahydro-3a,5,5-trimethyl-4,6-methano-1,3,2-benzodioxaborol-2-yl]-3-methylbutyl]amino]carbonyl]-4-[[imino(nitroamino)methyl]amino]butyl]] | –
> 10000 nM | < 10 nM | COc1ccc(CC(=O)N[C@@H](CCCNC(=N)N[N+](=O)[O-])C(=O)N[C@@H](CC(C)C)B(O)O)cc1 [E.2.37, Boronic acid, [(1R)-1-[[(2S)-5-[[imino(nitroamino)methyl]amino]-2-[[2-(4-methoxyphenyl)acetyl]amino]-1-oxopentyl]amino]-3-methylbutyl]] | –
2000 to 10000 nM | < 10 nM | CC(C)C[C@H](NC(=O)[C@H](CCCNC(=N)N[N+](=O)[O-])NC(=O)C(C)c1ccc(Cl)cc1)B(O)O (mixture of isomers) [E.2.76, Boronic acid, [(1R)-1-[[(2S)-5-[[imino(nitroamino)methyl]amino]-2-[[(RS)-2-(4-chlorophenyl)propanoyl]amino]-1-oxopcntyl]amino]-3-methylbutyl]] | –
< 200 nM | < 10 nM | CCOc1ccc(C(=O)N[C@@H](CCCNC(=N)N[N+](=O)[O-])C(=O)N[C@@H](CC(C)C)B2O[C@@H]3C[C@@H]4C[C@@H](C4(C)C)[C@]3(C)O2)cc1 [D.3.91] | –
< 200 nM | < 10 nM | Cc1ccc(/C=C/C(=O)N[C@@H](CCCNC(=N)N[N+](=O)[O-])C(=O)N[C@@H](CC(C)C)B2O[C@@H]3C[C@@H]4C[C@@H](C4(C)C)[C@]3(C)O2)cc1 [D.3.62, 3-(4-Methylphenyl)acrylamide,N-[(1S)-1-[[[(1R)-1-[(3aS,4S,6S,7aR)-hexahydro-3a,5,5-trimethyl-4,6-methano-1,3,2-benzodioxaborol-2-yl]-3-methylbutyl]amino]carbonyl]-4-[[imino(nitroamino)methyl]amino]butyl]] | –
> 10000 nM | < 10 nM | CC(C)C[C@H](NC(=O)[C@H](CCCNC(=N)N[N+](=O)[O-])NC(=O)C1CCN(C(=O)OC(C)(C)C)CC1)B(O)O (racemic) [D.7.7, Boronic acid, [(1R)-1-[[(2S)-5-[[imino(nitroamino)methyl]amino]-2-[[(4RS)-1-[(1,1-dimethylethoxy)carbonyl]piperidine-4-carbonyl]amino]-1-oxopentyl]amino]-3-methylbutyl]] | –

Structure (SMILES) | EC50 [1, 3] | IC50 [2] | EC50 ([1]; read-out: MOLT4 (EC50); assay of Example E, inhibition of MOLT4)
CCCCCCCCS(=O)(=O)N[C@@H](CCCNC(=N)N[N+](=O)[O-])C(=O)N[C@@H](CC(C)C)B(O)O [E.1.15, Boronic acid, [(1R)-1-[[(2S)-5-[[imino(nitroamino)methyl]amino]-2-[(1-octanesulfonyl)amino]-1-oxopentyl]amino]-3-methylbutyl], HCl salt] | – | < 10 nM | 200 to 2000 nM
CCCCOc1ccc(S(=O)(=O)N[C@@H](CCCNC(=N)N[N+](=O)[O-])C(=O)N[C@@H](CC(C)C)B2O[C@@H]3C[C@@H]4C[C@@H](C4(C)C)[C@]3(C)O2)cc1 [D.4.6, 4-Butoxyenzenesulfonamide, N-[(1S)-1-[[[(1R)-1-[(3aS,4S,6S,7aR)-hexahydro-3a,5,5-trimethyl-4,6-methano-1,3,2-benzodioxaborol-2-yl]-3-methylbutyl]amino]carbonyl]-4-[[imino(nitroamino)methyl]amino]butyl]] | < 200 nM | < 100 nM | –
